US4195172A
≈ marks a conversion by molar mass, not a printed value. Where “and” joins values, the source holds several entries; their conditions need not be identical. Equal entries are not always repeated. Structures can show the parent of a compound that is named as a salt. Where two headings read alike, the source gives them in different places.

Experiments:
pH of 1% water solution = format: physicochemical
[1] = Biological activity in U/mg; format: cell-based
[2] = IC50 of products of the examples and original antibiotics; format: cell-based; settings: test organism not given
[3] = prior art; cited from earlier work
[4] = Selective toxicity: potassium ion effluence from human erythrocytes versus Saccharomyces cerevisiae cells; format: cell-based; settings: human erythrocytes vs saccharomyces cerevisiae; 50% effluence of potassium ions from human erythrocytes / from Saccharomyces cerevisiae cells; column head is drawing 1; read-out: Selective toxicity index EK50/DK50
Source text: (§1) The data representing the selective toxicity are also more advantageous for the N-methylglucamine salt of N-glycosyl derivatives of polyene macrolides than for Fungizone. The indices of selective toxicity EK50 /DK50 and EH50 /DK50, illustrating the ratio of the minimal antibiotic concentration causing 50% effluence of the potassium ions from erythrocytes of human blood/EK50 /and the minimal concentration of antibiotic causing 50% hemolysis of erythrocytes/EH50 /to the minimal antibiotic concentration causing 50% effluence of the potassium ions from Saccharomyces cerevisiae cells/DK50 /are compared in Table 6.

Aspergillus fumigatus = test: Protection of mice in generalized aspergillosis; format: in vivo; settings: for ED50: read-out: Average protective DP50 doses, generalized aspergillosis
Experimental: (§2) Average protective DP50 doses
(§3) 24 hours in a case of genera-

[5] = Selective toxicity: hemolysis of human erythrocytes versus potassium ion effluence from Saccharomyces cerevisiae cells; format: cell-based; settings: human erythrocytes vs saccharomyces cerevisiae; 50% hemolysis of human erythrocytes / 50% potassium effluence from Saccharomyces cerevisiae cells; column head is drawing 2; read-out: Selective toxicity index EH50/DK50
Source text: as §1

Geotrichum candidum = test: Protection of mice in generalized geotrichosis; format: in vivo; settings: for ED50: read-out: Average protective DP50 doses, generalized geotrichosis; for in vivo activity compared with Fungizone (in words), geotrichosis: generalized geotrichosis caused by Geotrichum candidum
Experimental: as §2, §3

[6] = Acute toxicity on intravenous administration in mice; settings: mouse, in vivo, administered intravenously, read-out: DL50 (the source's name)
Candida albicans [7] = test: Experimental chemotherapy of Candida albicans infected mice; format: in vivo; settings: Fungizone = 1
Source text: The relative activity index representing the antibiotic activity in experimental chemotherapy of Candida albicans infected mice is much more advantageous for the N-methylglucamine salts of the N-glycosyl derivatives of polyene macrolides than for Fungizone/Table 4/.

[8] = Presence of antibiotic in serum after intravenous administration to rats; format: in vivo
Source text: In intravenous administration to rats of N-methylglucamine salts of polyene macrolide N-glycosyl derivatives as compared to Fungizone the effect is much more advantageous for the N-methylglucamine salts because the presence of antibiotic in the serum after administration can be found longer that in the case of Fungizone/Table 5/.

Candida tropicalis = test: Sensitivity of Candida tropicalis strains; format: cell-based
Source text: (§4) There is a different sensitivity of different strains, for example Candida sp. to the N-methylglucamine salt of the N-glycosyl derivative of amphotericin B and Fungizone. Statistically, the amount of to Fungizone insensitive strains is much higher than the amount of to N-methylglucaminesalt of the said derivative insensitive strains. This especially concerns Candida albicans strains ZM, HM, and 1/75, Candida tropicalis strains JD and 20/75 and Candida krusei strains TS and 16/75, which are insensitive to Fungizone, but sensitive to N-methylglucamine salt of N-glycosyl derivative of amphotericin B.

[9] = Stability on storage at different temperatures within 6 months (retained biological activity); settings: storage within 6 months, initial biological activity assumed as 100%, 262800 min
Candida krusei = test: Sensitivity of Candida krusei strains; format: cell-based
Source text: as §4

[10] = system: Torula sp., Geotrichum candidum and Cryptococcus neoformans; test: In vitro antifungal activity in comparison with Fungizone (in words); format: cell-based
Source text: The in vitro activities of the N-methylglucamine salts of the N-glycosyl derivative of amphotericin B and Fungizone against some fungi are compared in Table 3.

Candida albicans [11] = test: Sensitivity of Candida albicans strains; format: cell-based
Source text: as §4

[12] = aspergillosis caused by Aspergillus fumigatus

Compound: C[C@@H]1[C@H](O)[C@@H](C)/C=C/C=C/CC/C=C/C=C/C=C/C=C/[C@H](O[C@@H]2O[C@H](C)[C@@H](O)[C@H](NC3O[C@H](CO)[C@@H](O)[C@H](O)[C@H]3O)[C@@H]2O)C[C@@H]2O[C@](O)(C[C@@H](O)[C@H](O)CC[C@@H](O)C[C@@H](O)C[C@@H](O)CC(=O)O[C@H]1C)C[C@H](O)[C@H]2C(=O)O (stereo partly drawn) [Sodium salt of N-glycosyl derivative of nystatin] [reference compound]
- Solubility in water (Solubility in water): 4-10%
- pH 1% water solution (pH of 1% water solution): 9.7
- Biological activity [1]: 1296 U/mg

Compound: C[C@@H]1[C@H](O)[C@@H](C)/C=C/C=C/CC/C=C/C=C/C=C/C=C/[C@H](O[C@@H]2O[C@H](C)[C@@H](O)[C@H](N)[C@@H]2O)C[C@@H]2O[C@](O)(C[C@@H](O)[C@H](O)CC[C@@H](O)C[C@@H](O)C[C@@H](O)CC(=O)O[C@H]1C)C[C@H](O)[C@H]2C(=O)O [nystatin, reference compound]
- IC50 ([2]; read-out: IC50): 0.18 µg/mL (≈ 0.194 µM)

Compound: COC(=O)[C@H]1[C@@H]2C[C@@H](O[C@@H]3O[C@H](C)[C@@H](O)[C@H](N)[C@@H]3O)/C=C/C=C/C=C/C=C/C=C/C=C/C=C/[C@H](C)[C@@H](O)[C@@H](C)[C@H](C)OC(=O)C[C@H](O)C[C@H](O)CC[C@@H](O)[C@H](O)C[C@H](O)C[C@](O)(C[C@@H]1O)O2 [hydrochloride of methyl esters of amphotericin B]
- solubility in water (in words, from literature) [3]: forms in water merely micelle

Compound: polifungin [reference compound]
- IC50 [2]: 0.15 µg/mL and 0.16 µg/mL

Compound: C[C@@H]1[C@H](O)[C@@H](C)/C=C/C=C/CC/C=C/C=C/C=C/C=C/[C@H](O[C@@H]2O[C@H](C)[C@@H](O)[C@H](NC3O[C@H](CO)[C@@H](O)[C@H](O)[C@H]3O)[C@@H]2O)C[C@@H]2O[C@](O)(C[C@@H](O)[C@H](O)CC[C@@H](O)C[C@@H](O)C[C@@H](O)CC(=O)O[C@H]1C)C[C@H](O)[C@H]2C(=O)O (stereo partly drawn) [VII, N-methylglucamine salt of the N-glycosyl derivative of nystatin]
- IC50 ([2]; read-out: IC50): 0.45 µg/mL

Compound: C[C@@H]1[C@H](O)[C@@H](C)/C=C/C=C/CC/C=C/C=C/C=C/C=C/[C@H](O[C@@H]2O[C@H](C)[C@@H](O)[C@H](NC3O[C@H](CO)[C@@H](O[C@H]4O[C@H](CO)[C@@H](O)[C@H](O)[C@H]4O)[C@H](O)[C@H]3O)[C@@H]2O)C[C@@H]2O[C@](O)(C[C@@H](O)[C@H](O)CC[C@@H](O)C[C@@H](O)C[C@@H](O)CC(=O)O[C@H]1C)C[C@H](O)[C@H]2C(=O)O (stereo partly drawn) [XI, N-methylglucamine salt of N-glycosyl nystatin]
- IC50 ([2]; read-out: IC50): 0.45 µg/mL

Compound: C[C@@H]1[C@H](O)[C@@H](C)/C=C/C=C/CC/C=C/C=C/C=C/C=C/[C@H](O[C@@H]2O[C@H](C)[C@@H](O)[C@H](NC3O[C@H](CO)[C@@H](O)[C@H](O)[C@H]3O)[C@@H]2O)C[C@@H]2O[C@](O)(C[C@@H](O)[C@H](O)CC[C@@H](O)C[C@@H](O)C[C@@H](O)CC(=O)O[C@H]1C)C[C@H](O)[C@H]2C(=O)O (stereo partly drawn) [N-methylglucamine salt of N-glycosyl derivative of nystatin] [listing 1 of 2 here]
- selectivity ratio [4]: 17.3
- ED50 (Aspergillus fumigatus; Aspergillus fumigatus): 6.28 mg/kg
- selectivity ratio [5]: 45
- ED50 (Geotrichum candidum; Geotrichum candidum): 4.49 mg/kg
- LD50 [6]: 19 mg/kg

Compound: C[C@@H]1[C@H](O)[C@@H](C)/C=C/C=C/CC/C=C/C=C/C=C/C=C/[C@H](O[C@@H]2O[C@H](C)[C@@H](O)[C@H](NC3O[C@H](CO)[C@@H](O)[C@H](O)[C@H]3O)[C@@H]2O)C[C@@H]2O[C@](O)(C[C@@H](O)[C@H](O)CC[C@@H](O)C[C@@H](O)C[C@@H](O)CC(=O)O[C@H]1C)C[C@H](O)[C@H]2C(=O)O (stereo partly drawn) [N-methylglucamine salt of N-glycosyl derivative of nystatin] [listing 2 of 2 here]
- in vivo activity compared with Fungizone (in words), aspergillosis (Aspergillus fumigatus; [12]): higher activity than Fungizone
- Solubility in water (Solubility in water): > 15%
- Relative activity index in Candida albicans mice infection (Candida albicans [7]): 2.41
- pH 1% water solution (pH of 1% water solution): 8.3
- in vivo activity compared with Fungizone (in words), geotrichosis (Geotrichum candidum): higher activity than Fungizone
- Time of the presence of an antibiotic in serum after 1/5 DL50 dose administration [8]: 30 min
- Biological activity [1]: 1780 U/mg

Compound: C[C@@H]1[C@H](O)[C@@H](C)/C=C/C=C/C=C/C=C/C=C/C=C/C=C/[C@H](O[C@@H]2O[C@H](C)[C@@H](O)[C@H](NC3O[C@H](CO)[C@@H](O)[C@H](O)[C@H]3O)[C@@H]2O)C[C@@H]2O[C@](O)(C[C@@H](O)C[C@@H](O)[C@H](O)CC[C@@H](O)C[C@@H](O)CC(=O)O[C@H]1C)C[C@H](O)[C@H]2C(=O)O (stereo partly drawn) [Example I, sodium salt of the N-glycosyl derivative of the amphotericin B]
- IC50 [2]: 0.05 µg/mL

Compound: C[C@@H]1[C@H](O)[C@@H](C)/C=C/C=C/C=C/C=C/C=C/C=C/C=C/[C@H](O[C@@H]2O[C@H](C)[C@@H](O)[C@H](NC3O[C@H](CO)[C@@H](O)[C@H](O)[C@H]3O)[C@@H]2O)C[C@@H]2O[C@](O)(C[C@@H](O)C[C@@H](O)[C@H](O)CC[C@@H](O)C[C@@H](O)CC(=O)O[C@H]1C)C[C@H](O)[C@H]2C(=O)O (stereo partly drawn) [N-methylglucamine salt of N-glycosyl derivative of amphotericin B]
- selectivity ratio [4]: 1.37
- in vivo activity compared with Fungizone (in words), aspergillosis (Aspergillus fumigatus; [12]): corresponds to activity of Fungizone
- ED50 (Aspergillus fumigatus; mice, aspergillosis caused by Aspergillus fumigatus): 22.7 mg/kg
- Relative activity index in Candida albicans mice infection (Candida albicans [7]): 2.35
- sensitivity of strain (Candida tropicalis; Candida tropicalis strain 20/75): sensitive
- sensitivity of strain (Candida tropicalis; Candida tropicalis strain JD): sensitive
- selectivity ratio [5]: 24
- Biological activity in % at +37° C. ([9]; +37° C.): 77.0%
- Biological activity in % at +50° C. ([9]; +50° C.): 79.8%
- Biological activity in % at RT ([9]; RT): 83.1%
- in vivo activity compared with Fungizone (in words), geotrichosis (Geotrichum candidum): corresponds to activity of Fungizone
- ED50 (Geotrichum candidum; mice, geotrichosis caused by Geotrichum candidum): 17.9 mg/kg
- sensitivity of strain (Candida krusei; Candida krusei strain 16/75): sensitive
- sensitivity of strain (Candida krusei; Candida krusei strain TS): sensitive
- Time of the presence of an antibiotic in serum after 1/5 DL50 dose administration [8]: 15 min
- LD50 [6]: 12.1 to 14.3 mg/kg
- antifungal activity in comparison with Fungizone (in words) [10]: exhanced antifungal activity
- remaining at 4380 h (physchem): 81.2%
- sensitivity of strain (Candida albicans [11]; Candida albicans strain 1/75): sensitive
- sensitivity of strain (Candida albicans [11]; Candida albicans strain HM): sensitive
- sensitivity of strain (Candida albicans [11]; Candida albicans strain ZM): sensitive

Compound: C[C@@H]1[C@H](O)[C@@H](C)/C=C/C=C/CC/C=C/C=C/C=C/C=C/[C@H](O[C@@H]2O[C@H](C)[C@@H](O)[C@H](NC3O[C@H](CO)[C@H](O)[C@H](O)[C@H]3O)[C@@H]2O)C[C@@H]2O[C@](O)(C[C@@H](O)[C@H](O)CC[C@@H](O)C[C@@H](O)C[C@@H](O)CC(=O)O[C@H]1C)C[C@H](O)[C@H]2C(=O)O (stereo partly drawn) [X, N-methylglucamine salt of N-glycosyl nystatin]
- IC50 ([2]; read-out: IC50): 0.45 µg/mL

Compound: C[C@@H]1[C@H](O)[C@@H](C)/C=C/C=C/C=C/C=C/C=C/C=C/C=C/[C@H](O[C@@H]2O[C@H](C)[C@@H](O)[C@H](NC3O[C@H](CO)[C@@H](O)[C@H](O)[C@H]3O)[C@@H]2O)C[C@@H]2O[C@](O)(C[C@@H](O)C[C@@H](O)[C@H](O)CC[C@@H](O)C[C@@H](O)CC(=O)O[C@H]1C)C[C@H](O)[C@H]2C(=O)O (stereo partly drawn) [II, tris salt of the N-glycosyl derivative of amphotericin B]
- IC50 [2]: 0.6 µg/mL

Compound: C[C@@H]1[C@H](O)[C@@H](C)/C=C/C=C/C=C/C=C/C=C/C=C/C=C/[C@H](O[C@@H]2O[C@H](C)[C@@H](O)[C@H](NC3O[C@H](CO)[C@@H](O)[C@H](O)[C@H]3O)[C@@H]2O)C[C@@H]2O[C@](O)(C[C@@H](O)C[C@@H](O)[C@H](O)CC[C@@H](O)C[C@@H](O)CC(=O)O[C@H]1C)C[C@H](O)[C@H]2C(=O)O (stereo partly drawn) [VIII, N-methylglucamine salt of N-glycosyl derivative of amphotericin B]
- IC50 [2]: 0.1 µg/mL
